Article PMC7997369, “Assessment of the Multifunctional Behavior of Lupin Peptide P7 and Its Metabolite Using an Integrated Strategy” (Journal of Agricultural and Food Chemistry, 2020)

Legend:
ACE = conditions: cited from earlier work; for in vitro ACE inhibitory activity at 0.5 mg/mL: hempseed hydrolysate peptides
Protocol: (§1) Moreover, when orally administered to spontaneously hypertensive rats (SHRs) at a dose of 30 mg/kg of body weight, LTFPG produces a fast and efficient decrease in systolic blood pressure with a maximum of −37 mmHg after 2 h. […] In particular, these phenomena have been invocated to explain the discrepancy observed between in vitro assays and in vivo results. For example, there are many reports in the literature on the ACE inhibitory activity of different food-derived peptides.[32] In all of these studies, the biochemical characterization is carried out using tests on the purified recombinant ACE enzymes from lung ...

[1] = tested on: spontaneously hypertensive rats (SHRs); conditions: cited from earlier work
Protocol: as §1

[2] = tested on: differentiated Caco-2 cell monolayers; experiment: Transepithelial transport and metabolism across differentiated Caco-2 cell monolayers; type: in vitro ADME, human; conditions: AP solutions of differentiated Caco-2 collected after 120 min; untargeted HPLC–Chip–MS/MS; × = detected
Protocol: For differentiation, Caco-2 cells were seeded on polycarbonate filters with a 12 mm diameter and 0.4 μm pore diameter (Transwell, Corning, Inc., Lowell, MA, U.S.A.) at a 3.5 × 10^5 cells/cm^2 density in complete medium supplemented with 10% FBS in both AP and BL compartments for 2 days to allow for the formation of a confluent cell monolayer. Starting from day 3 after seeding, cells were transferred to FBS-free medium in both compartments, supplemented with ITS [final concentration of 10 mg/L insulin (I), 5.5 mg/L transferrin (T), and 6.7 μg/L sodium selenite (S), GIBCO–Invitrogen, San Giuliano Milanese, Italy] only in the BL compartment, and allowed to differentiate for 18–21 days with regular medium changes 3 times weekly.[12]
The transepithelial electrical resistance (TEER) of differentiated Caco-2 cells was measured at 37 °C using the voltmeter apparatus Millicell (Millipore Co., Billerica, MA, U.S.A.), immediately before and at the end of the transport experiments. In addition, at the end of transport experiments, cells were incubated from the AP side with 1 mM phenol red in phosphate-buffered saline (PBS) containing Ca^2+ (0.9 mM) and Mg^2+ (0.5 mM) for 1 h at 37 °C, to monitor the paracellular permeability of the cell monolayer. The BL solutions were then collected, and NaOH (70 μL, 0.1 N) was added before reading the absorbance at 560 nm by a microplate reader Synergy H1 from Biotek (Winooski, VT, U.S.A.). Phenol red passage was quantified using a standard phenol red curve. Only filters showing TEER values and phenol red passages similar to untreated control cells were considered for peptide transport analysis.
Prior to experiments, the cell monolayer integrity and differentiation were checked by TEER measurement as described in detail above. Cells were then washed twice, and peptide transportation by intestinal cells was assayed. Transport experiments were performed in transport buffer solution (137 mM NaCl, 5.36 mM KCl, 1.26 mM CaCl2, 1.1 mM MgCl2, and 5.5 mM glucose) following conditions previously described.[13] To reproduce the pH conditions existing in vivo in the small intestinal mucosa, AP solutions were maintained at pH 6.0 (buffered with 10 mM morpholinoethanesulfonic acid) and BL solutions were maintained at pH 7.4 (buffered with 10 mM N-2-hydroxyethylpiperazine-N-4-[…]). Prior to transport experiments, cells were washed twice with 500 μL of PBS containing Ca^2+ and Mg^2+. Peptide transportation by mature Caco-2 cells was assayed by loading the AP compartment with P7 and/or LTFPG (500 μM) in the AP transport solution (500 μL) and the BL compartment with the BL transport solution (700 μL). The plates were incubated at 37 °C, and the BL solutions were collected at different time points (i.e., 15, 30, 60, 90, and 120 min) and replaced with fresh solutions prewarmed at 37 °C. All BL solutions together with the AP solutions collected at the end of the transport experiment were stored at −80 °C prior to analysis. Three independent transport experiments were performed, each in duplicate.
Quantitative analysis of P7 in the AP and BL samples were carried out by ion trap mass spectrometry (MS) in multiple reaction monitoring (MRM) mode, monitoring two of the most intense diagnostic transitions, after optimization of the acquisition parameters, such as retention time, MS profile, and tandem mass spectrometry (MS/MS) fragmentation spectrum.[14],[15] All further details regarding liquid chromatography–tandem mass spectrometry (LC–MS/MS) operating conditions and method validations are described in the Supporting Information.
The metabolic degradation products deriving from the hydrolytic activity of brush border membrane peptidases were investigated by an untargeted approach (for further details, see the Supporting Information). […]

In the case of SVYT, the “in vitro ACE inhibitory activity at 0.5 mg/mL” value (ACE) is listed as 79.0%.

For IPAGV, the “in vitro ACE inhibitory activity at 0.5 mg/mL” value (ACE) is listed as 60.0% and the “reduction of the BP of SHR” value [1] is listed as −40.0 mmHg.

For “FKGRYYP [peptide from meat-derived hydrolysates obtained using thermolysin]”, the IC50 (ACE; peptides from meat-derived thermolysin hydrolysates, read-out: IC50, in vitro ACE activity) is listed as 0.55 µM and the “effect in vivo on SHRs” value [1] is listed as “totally ineffective”.

For “TFPGSAED [AP metabolite of P7 produced by Caco-2 cells, attributed to leucine aminopeptidase]”, the “detected at the AP side, P7 tested within a mixture” value [2] was “×”.
